For 30 compounds, IC50 results are on record in patent EP4624465A1, “COMPOUND SERVING AS DDR1 KINASE INHIBITOR, AND MEDICINE” (Nippon Shinyaku Co., Ltd., priority 2022, dated 2024).

Structures can show the parent of a compound that is named as a salt.

The experiment has as its target DDR1 kinase (Homo sapiens, UniProt Q08345). The experiment in a line: Evaluation of DDR1 kinase inhibition (LANCE Ultra TR-FRET kinase assay). In kind it is biochemical. Set-up: purchased Carna Biosciences 08-113. The conditions noted are these: DDR1 protein 0.5 nM, LANCE Ultra ULight-poly GAT substrate, 2 hours at room temperature, duplicate; read-out: DDR-1 IC50.

DDR1 kinase, sequence (Q08345 19-876 isoform Q08345-2 limits assumed): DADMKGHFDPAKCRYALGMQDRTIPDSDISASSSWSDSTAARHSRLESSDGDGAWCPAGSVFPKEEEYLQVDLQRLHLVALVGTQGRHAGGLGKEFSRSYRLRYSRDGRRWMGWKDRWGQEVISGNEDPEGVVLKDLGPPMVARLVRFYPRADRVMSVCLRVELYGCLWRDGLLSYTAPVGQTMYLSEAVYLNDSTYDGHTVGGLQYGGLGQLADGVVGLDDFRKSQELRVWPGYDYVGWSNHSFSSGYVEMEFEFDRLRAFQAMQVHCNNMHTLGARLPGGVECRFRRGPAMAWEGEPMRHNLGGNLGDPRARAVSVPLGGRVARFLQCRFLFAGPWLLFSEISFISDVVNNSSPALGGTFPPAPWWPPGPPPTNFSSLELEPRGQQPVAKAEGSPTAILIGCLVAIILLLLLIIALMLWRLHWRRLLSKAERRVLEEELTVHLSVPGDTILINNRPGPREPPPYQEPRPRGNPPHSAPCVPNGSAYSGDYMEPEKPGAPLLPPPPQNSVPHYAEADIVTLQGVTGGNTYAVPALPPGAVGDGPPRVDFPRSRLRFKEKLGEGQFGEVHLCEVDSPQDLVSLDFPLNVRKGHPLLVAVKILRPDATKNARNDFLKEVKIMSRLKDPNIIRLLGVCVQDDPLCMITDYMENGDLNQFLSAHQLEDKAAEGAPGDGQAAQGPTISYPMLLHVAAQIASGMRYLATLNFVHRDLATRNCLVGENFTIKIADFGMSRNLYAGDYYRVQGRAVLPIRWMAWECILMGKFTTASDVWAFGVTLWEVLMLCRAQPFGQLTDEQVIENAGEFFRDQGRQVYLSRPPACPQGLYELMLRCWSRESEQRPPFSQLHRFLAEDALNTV

`CO[C@H]1CCN(C(=O)Cn2nc(C3CN(C(=O)c4cc(N)ncc4F)C3)c3ccccc32)C1` [Compound E-230, 2-{3-[1-(2-amino-5-fluoropyridine-4-carbonyl)azetidin-3-yl]-1H-indaaol-1-yl}-1-[(3S)-3-methoxypyrrolidin-1-yl]ethan-1-one]: the IC50 was determined as 0.054 µM.
`Cc1ccc(-c2nc(Cn3nc(C4CN(C(=O)c5ccnc(N)c5)C4)c4c(F)cccc43)no2)nn1` [Compound E-154, 4-[3-(4-fluoro-1-{[5-(6-methylpyridazin-3-yl)-1,2.4-oxadiazol-3-yl}methyl}-1H-indazol-3-yl)azetidine-1-carbony1]pyridin-2-amine]: the IC50 came out at 0.27 µM.
In the case of `CC1(C)CCc2c(c(C3CN(C(=O)c4ccnc(N)n4)C3)nn2CC(=O)N2CCC[C@H]2C(F)(F)F)C1` [Compound E-295, 2-{3-[1-(2-aminopyrimidine-4-carbonyl)azetidin-3-yl]-5,5-dimethyl-4,5,6,7-tetrahydro-1H-indazol-1-yl}-1-[(2S)-2-(trifluoromethyl)pyrrolidin-1-yl]ethan-1-one], the IC50 turned out to be 0.16 µM.
For `Nc1cc(C(=O)N2CC(c3nn(CC(=O)N4CCCc5ccccc54)c4cc(F)cc(F)c34)C2)ccn1` [Compound E-158, 2-{3-[1-(2-aminopyridine-4-carbonyl)azetidin-3-yl]-4,6-difluoro-1H-indazol-1-yl}-1-(1,2,3,4-tetrahydroquinolin-1-yl)ethan-1-one] the value was 0.0006 µM; for `Nc1cc(C(=O)N2CC(c3nn(CC(=O)NC4CC5CCC4C5)c4cccc(F)c34)C2)ccn1` (stereo not drawn) [Compound E-238, 2-{3-[1-(2-aminopyridine-4-carbonyl)azetidin-3-yl]-4-fluoro-1H-indazol-1-yl}-N-{bicyclo[2.2.1]heptan-2-yl}acetamide], 0.0056 µM; for `Cc1cc2c(C3CN(C(=O)c4ccnc(N)c4)C3)nn(Cc3ccc(C(F)(F)F)cc3)c2cn1` [Compound E-168, 4-[3-(5-methyl-1-{[4-(trifluoromethyl)phenyl]methyl]-1H-pyrazolo[3,4-c]pyridin-3-yl)azetidine-1-carbonyl]pyridin-2-amine], 0.064 µM.
For the compound `Nc1cc(C(=O)N2CC(c3nn(Cc4ccccc4C(F)(F)F)c4cccc(F)c34)C2)ccn1` [Compound E-114, 4-[3-(4-fluoro-1-{[2-(trifluoromethyl)phenyllmethyl}-1H-indazol-3-yl)azetidine-1-carbonyl]pyridin-2-amine hydrochloride], the IC50 is 0.056 µM.
For `Cc1nc(N)sc1C(=O)N1CC(c2nn(CC(=O)N3CCOCC3(C)C)c3ccccc23)C1` [Compound E-7, 2-{3-[1-(2-amino-4-methyl-1,3-thiazole-5-carbonyl)azetidin-3-yl]-1H-indazol-1-yl}-1-(3,3-dimethylmorpholin-4-yl)ethan-1-one] the value was 0.015 µM; for `CC1(c2nn(CC(=O)N3CCC[C@H]3C(F)(F)F)c3ccccc23)CN(C(=O)c2ccnc(N)c2)C1` [Compound E-6, 2-{3-[1-(2-aminopyridine-4-carbonyl)-3-methylazetidin-3-yl]-1H-indazol-1-yl}-1-[(2S)-2-(trifluoromethyl)pyrrolidin-1-yl]ethan-1-one], 0.0071 µM; for `COc1cnccc1C(=O)N1CC(c2nn(CC(=O)N3CCC[C@H]3C(F)(F)F)c3cc(F)cc(F)c23)C1` [Compound E-133, 2-{4,6-difluoro-3-[1-(3-methoxypyridine-4-carbonyl)azetidin-3-yl)-1H-indazol-1-yl}-1-[(28)-2-(trifluoromethyl)pyrrolidin-1-yl]ethan-1-one], 0.023 µM.
For `Nc1cc(C(=O)N2CC(c3nn(CC(=O)N4CCC[C@H]4COC(F)(F)F)c4cc(F)cc(F)c34)C2)c(F)cn1` [Compound E-175, 2-{3-[1-(2-amino-5-fluoropyridine-4-carbonyl)azetidin-3-yl]-4,6-difluoro-1H-indazol-1-yl}-1-[(2S)-2-[(trifluoromethoxy)methyl]pyrrolidin-1-yl]ethan-1-one] the value was 0.0005 µM.
For `Nc1cc(C(=O)N2CC(c3nn(CC(=O)N4CCOc5ccccc54)c4cc(F)cc(F)c34)C2)ccn1` [Compound E-159, 2-{3-{1-(2-aminopyridine-4-carbonyl)azetidin-3-yl]-4,6-difluoro-1H-indazol-1-yl]-1-(3,4-dihydro-2H-1,4-benzoxazin-4-yl)ethan-1-one] the value was 0.0012 µM; for `CC(C(=O)N1CCC[C@H]1C(F)(F)F)n1nc(C2CN(C(=O)c3ccnc(N)c3)C2)c2c(F)cc(F)cc21` (stereo partly drawn) [Compound E-103, 2-{3-[1-(2-aminopyridine-4-carbonyl)azetidin-3-yl]-4,6-difluoro-1H-indazol-1-yl}-1-[(2S)-2-(trifluoromethyl)pyrrolidin-1-yl}propane-1-one hydrochloride], 0.014 µM.
With `CN(CC(F)(F)F)C(=O)Cn1nc(C2CN(C(=O)c3ccnc(N)n3)C2)c2c(F)cc(F)cc21` [Compound E-289, 2-{3-[1-(2-aminopyrimidine-4-carbonyl)azetidin-3-yl]-4,6-difluoro-1H-indazol-1-yl)-N-methyl-N-(2,2,2-trifluoroethyl)acetamide], the half-inhibitory concentration (IC50) came out at 0.045 µM.
For `CN(CC(F)(F)F)C(=O)Cn1nc(C2CN(C(=O)c3ccnc(N)n3)C2)c2ccc(F)cc21` [Compound E-284, 2-{3-[1-(2-aminopyrimidine-4-carbonyl)azetidin-3-yl]-6-fluoro-1H-indazol-1-yl}-N-methyl-N-(2,2,2-trifluoroethyl)acetamide], the IC50 turned out to be 0.054 µM.
As to `O=C(Cn1nc(C2CN(C(=O)c3ccnc(NC4COC4)c3)C2)c2c(F)cc(F)cc21)NCC(F)(F)F` [Compound E-32, 2-[4,6-difluoro-3-(1-{2-[(oxetan-3-yl)amino]pyridine-4-carbonyl}azetidin-3-yl)-1H-indazol-1-yl]-N-(2,2,2-trifluoroethyl)acetamide], the IC50 amounted to 0.16 µM.
In the case of `Nc1cc(C(=O)N2CC(c3nn(Cc4noc(-c5ccccc5F)n4)c4cncc(F)c34)C2)ccn1` [Compound E-160, 4-[3-(4-fluoro-1-{[5-(2-fluorophenyl)-1,2,4-oxadiazol-3-yl]methyl}-1H-pyrazolo[3,4-c]pyridin-3-yl)azetidine-1-carbonyl]pyridin-2-amine], the IC50 worked out at 0.14 µM.
For `O=C(c1cn[nH]c1C(F)(F)F)N1CC(c2nn(CC(=O)N3CCC[C@H]3C(F)(F)F)c3cc(F)cc(F)c23)C1` [Compound E-166, 2-(4,6-difluoro-3-{1-[5-(trifluoromethyl)-1H-pyrazole-4-carbonyl]azetidin-3-yl}-1H-indazol-1-yl)-1-[(2S)-2-(trifluoromethyl)pyrrolidin-1-yl]ethan-1-one] the value was 0.15 µM; for `Cc1[nH]ncc1C(=O)N1CC(c2nn(CC(=O)N3CCC[C@H]3C(F)(F)F)c3cc(F)cc(F)c23)C1` [Compound E-165, 2-{4,6-difluoro-3-[1-(5-methyl-1H-pyrazole-4-carbonyl)azetidin-3-yl]-1H-indazol-1-yl}-1-[(28)-2-(trifluoromethyl)pyrrolidin-1-yl]ethan-1-one], 0.029 µM.
For `Nc1cc(C(=O)N2CCC(c3nn(CC(=O)N4CCC[C@H]4C(F)(F)F)c4cccc(F)c34)CC2)c(F)cn1` [Compound E-174, 2-{3-[1-(2-amino-5-fluoropyridine-4-carbonyl)piperidin-4-yl]-4-fluoro-1H-indazol-1-yl}-1-[(2S)-2-(trifluoromethyl)pyrrolidin-1-yl]ethan-1-one] the value was 0.0011 µM; for `Nc1cc(C(=O)N2CC(c3nn(CC(=O)N4CCC[C@H]4C(F)(F)F)c4cccnc34)C2)ccn1` [Compound E-120], 0.06 µM; for `CN(C(=O)Cn1nc(C2CN(C(=O)c3cc(N)ncc3F)C2)c2ccccc21)C(C)(C)C` [Compound E-268, 2-{3-[1-(2-amino-5-fluoropyridine-4-carbonyl)azetidin-3-yl]-1H-indazol-1-yl}-N-tert-butyl-N-methylacetamide], 0.0039 µM.
For `Nc1cc(C(=O)N2CC(c3nn(CC4Cc5ccccc5C4)c4cc(F)cc(F)c34)C2)ccn1` [Compound E-171, 4-(3-{1-[(2,3-dihydro-1H-inden-2-yl)methyl]-4,6-difluoro-1H-indazol-3-yl}azetidine-1-carbonyl)pyridin-2-amine] the value was 0.034 µM.
Regarding `Nc1cc(C(=O)N2CC(c3nn(Cc4noc(C5(C(F)(F)F)CC5)n4)c4cccc(F)c34)C2)ccn1` [Compound E-147], the IC50 amounted to 0.0003 µM.
`Nc1cc(C(=O)N2CC(c3nn(CC(=O)N4CCOC[C@H]4C(F)(F)F)c4cc(F)cc(F)c34)C2)ccn1` [Compound E-123, 2-{3-[1-(2-aminopyridine-4-carbonyl)azetidin-3-yl]-4,6-difluoro-1H-indazol-1-yl}-1-[(3S)-3-(trifluoromethyl)morpholin-4-yl]ethan-1-one]: the IC50 amounted to 0.0088 µM.
With `O=C(c1ccncc1F)N1CC(c2nn(CC(=O)N3CCC[C@H]3C(F)(F)F)c3cc(F)cc(F)c23)C1` [Compound E-142, 2-{4,6-difluoro-3-[1-(3-fluoropyridine-4-carbonyl)azetidin-3-yl]-1H-indazol-1-yl]-1-[(2S)-2-(trifluoromethyl)pyrrolidin-1-yl]ethan-1-one], the IC50 came to 0.0079 µM.
For the compound `O=C(c1ccnc2[nH]ncc12)N1CC(c2nn(CC(=O)N3CCC[C@H]3C(F)(F)F)c3cc(F)cc(F)c23)C1` [Compound E-17], the IC50 is 0.0003 µM.
`O=C(c1cn[nH]c1)N1CC(c2nn(CC(=O)N3CCC[C@H]3C(F)(F)F)c3cc(F)cc(F)c23)C1` [Compound E-164, 2-(4,6-difluoro-3-[1-(1H-pyrazole-4-carbonyl)azetidin-3-yl]-1H-indazol-1-yl}-1-[(28)-2-(trifluoromethyl)pyrrolidin-1-yl]ethan-1-one]: the IC50 came out at 0.2 µM.
For `Nc1cc(C(=O)N2CC(c3nn(CC#CC4CC4)c4cc(F)cc(F)c34)C2)ccn1` [Compound E-156] the value was 0.012 µM; for `Nc1cc(C(=O)N2CCC(c3nn(CC(=O)N4CCC[C@H]4C(F)(F)F)c4ccccc34)CC2)c(F)cn1` [Compound E-49, 2-{3-[1-(2-amino-5-fluoropyridine-4-carbonyl)piperidin-4-yl]-1H-indazol-1-yl}-1-[(2S)-2-(trifluoromethyl)pyrrolidin-1-yl]ethan-1-one], 0.0099 µM.
